Measured values reported in patent US20250230165A1, “HETEROCYCLIC COMPOUNDS FOR USE IN THE TREATMENT OF CANCER” (ARTIOS PHARMA LIMITED, priority 2021, published 2025).

target: T1, Human Polθ polymerase domain (aa1820-2590) (Homo sapiens, UniProt O75417); assay: Polθ Polymerase Domain Kinact/KI Assay (PicoGreen); format: biochemical; conditions: 0.8 nM Polθ, 100 nM DNA substrate, kobs vs [I] fit for 2-step covalent inhibitor
T1 construct: Human Polθ polymerase domain (aa1820-2590) was expressed in E. coli; made in house; host or cells: E. coli
T1 sequence (O75417 1820-2590): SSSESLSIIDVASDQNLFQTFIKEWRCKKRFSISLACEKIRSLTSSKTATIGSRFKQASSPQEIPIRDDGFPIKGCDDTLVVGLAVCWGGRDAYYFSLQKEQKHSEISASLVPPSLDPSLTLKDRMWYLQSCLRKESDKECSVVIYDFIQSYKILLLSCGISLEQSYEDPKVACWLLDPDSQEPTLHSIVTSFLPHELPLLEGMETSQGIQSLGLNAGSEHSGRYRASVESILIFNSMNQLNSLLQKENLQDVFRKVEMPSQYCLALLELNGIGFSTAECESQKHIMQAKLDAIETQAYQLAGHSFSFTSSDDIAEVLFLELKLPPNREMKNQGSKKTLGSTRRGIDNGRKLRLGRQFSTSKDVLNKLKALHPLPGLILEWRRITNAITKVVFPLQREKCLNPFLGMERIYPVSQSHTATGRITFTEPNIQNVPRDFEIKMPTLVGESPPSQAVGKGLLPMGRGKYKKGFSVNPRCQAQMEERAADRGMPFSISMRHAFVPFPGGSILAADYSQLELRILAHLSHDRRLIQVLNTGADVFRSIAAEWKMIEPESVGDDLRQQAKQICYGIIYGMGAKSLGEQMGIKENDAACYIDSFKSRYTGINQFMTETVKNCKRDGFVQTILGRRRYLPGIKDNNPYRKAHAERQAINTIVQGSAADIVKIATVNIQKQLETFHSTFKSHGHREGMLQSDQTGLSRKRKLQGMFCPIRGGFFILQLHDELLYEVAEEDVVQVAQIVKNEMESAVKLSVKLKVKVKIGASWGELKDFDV
In short: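 Covalent Kinact/KI by PicoGreen DNA synthesis readout: E. coli-expressed Polθ polymerase domain (0.8 nM), 100 nM annealed DNA substrate, […], Tris pH 7.5 buffer with DTT, 1% DMSO; EDTA-stopped over 0–60 min time course. kobs from progress curves, then kobs vs [I] fit to two-step covalent model.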

Row | SMILES | Kinact/Kl
1 | C=CC(=O)N1CC(c2nc(CN3C[C@H]4CC(=O)N(c5cc(C(F)(F)F)cc(C)n5)[C@@H]4C(=O)N(C)c4cccc(F)c43)n[nH]2)C1 [Example 98, (3aR,11aS)-5-((5-(1-acryloylazetidin-3-yl)-1H-1,2,4-triazol-3-yl)methyl)-6-fluoro-10-methyl-1-(6-methyl-4-(trifluoromethyl)pyridin-2-yl)-1,3a,4,5,10,11a-hexahydro-2H-benzo[b]pyrrolo[2,3-f][1,4]diazocine-2,11(3H)-dione] | 430000 M⁻¹ s⁻¹
2 | C=CC(=O)N1CC(c2nc(CN3C[C@H]4CC(=O)N(c5cc(C(F)(F)F)cc(C)n5)[C@@H]4C(=O)N(C)c4cccc(F)c43)n(C)n2)C1 [Example 99, (3aR,11aS)-5-((3-(1-acryloylazetidin-3-yl)-1-methyl-1H-1,2,4-triazol-5-yl)methyl)-6-fluoro-10-methyl-1-(6-methyl-4-(trifluoromethyl)pyridin-2-yl)-1,3a,4,5,10,11a-hexahydro-2H-benzo[b]pyrrolo[2,3-f][1,4]diazocine-2,11(3H)-dione] | 170000 M⁻¹ s⁻¹
3 | C=CC(=O)N1CC(c2nc(CN3C[C@H]4CC(=O)N(c5cc(C(F)(F)F)cc(C)n5)[C@@H]4C(=O)N(C)c4cccc(F)c43)nn2C)C1 [Example 100, (3aR,11aS)-5-((5-(1-acryloylazetidin-3-yl)-1-methyl-1H-1,2,4-triazol-3-yl)methyl)-6-fluoro-10-methyl-1-(6-methyl-4-(trifluoromethyl)pyridin-2-yl)-1,3a,4,5,10,11a-hexahydro-2H-benzo[b]pyrrolo[2,3-f][1,4]diazocine-2,11(3H)-dione] | 100000 M⁻¹ s⁻¹
4 | C=CC(=O)N1CC(c2nc(CN3C[C@H]4CC(=O)N(c5cc(C(F)(F)F)cc(C)n5)[C@@H]4C(=O)N(C)c4cccc(F)c43)no2)C1 [Example 101, (3aR,11aS)-5-((5-(1-acryloylazetidin-3-yl)-1,2,4-oxadiazol-3-yl)methyl)-6-fluoro-10-methyl-1-(6-methyl-4-(trifluoromethyl)pyridin-2-yl)-1,3a,4,5,10,11a-hexahydro-2H-benzo[b]pyrrolo[2,3-f][1,4]diazocine-2,11(3H)-dione] | 1.47e+06 M⁻¹ s⁻¹
5 | C=CC(=O)N1CC(c2noc(CN3C[C@H]4CC(=O)N(c5cc(C(F)(F)F)cc(C)n5)[C@@H]4C(=O)N(C)c4cccc(F)c43)n2)C1 [Example 102, (3aR,11aS)-5-((3-(1-acryloylazetidin-3-yl)-1,2,4-oxadiazol-5-yl)methyl)-6-fluoro-10-methyl-1-(6-methyl-4-(trifluoromethyl)pyridin-2-yl)-1,3a,4,5,10,11a-hexahydro-2H-benzo[b]pyrrolo[2,3-f][1,4]diazocine-2,11(3H)-dione] | 1.16e+06 M⁻¹ s⁻¹
6 | C=CC(=O)N1CC(c2nnc(CN3C[C@H]4CC(=O)N(c5cc(C(F)(F)F)cc(C)n5)[C@@H]4C(=O)N(C)c4cccc(F)c43)o2)C1 [Example 103, (3aR,11aS)-5-((5-(1-acryloylazetidin-3-yl)-1,3,4-oxadiazol-2-yl)methyl)-6-fluoro-10-methyl-1-(6-methyl-4-(trifluoromethyl)pyridin-2-yl)-1,3a,4,5,10,11a-hexahydro-2H-benzo[b]pyrrolo[2,3-f][1,4]diazocine-2,11(3H)-dione] | 1.6e+06 M⁻¹ s⁻¹
7 | C=CC(=O)N1CC2(CN(CCN3C[C@H]4CC(=O)N(c5cc(C(F)(F)F)cc(C)n5)[C@@H]4C(=O)N(C)c4cccc(F)c43)CC(=O)N2)C1 [Example 104, (3aR,11aS)-5-(2-(2-acryloyl-6-oxo-2,5,8-triazaspiro[3.5]nonan-8-yl)ethyl)-6-fluoro-10-methyl-1-(6-methyl-4-(trifluoromethyl)pyridin-2-yl)-1,3a,4,5,10,11a-hexahydro-2H-benzo[b]pyrrolo[2,3-f][1,4]diazocine-2,11(3H)-dione] | 1.86e+06 M⁻¹ s⁻¹
8 | C=CC(=O)N1CC2(CN(CCN3C[C@H]4CC(=O)N(c5cc(C(F)(F)F)cc(C)n5)[C@@H]4C(=O)N(C)c4cccc(F)c43)Cc3nccn32)C1 [Example 105, (3aR,11aS)-5-(2-(1-acryloyl-6′H-spiro[azetidine-3,5′-imidazo[1,2-a]pyrazin]-7′(8′H)-yl)ethyl)-6-fluoro-10-methyl-1-(6-methyl-4-(trifluoromethyl)pyridin-2-yl)-1,3a,4,5,10,11a-hexahydro-2H-benzo[b]pyrrolo[2,3-f][1,4]diazocine-2,11(3H)-dione] | 1.04e+06 M⁻¹ s⁻¹
9 | C=CC(=O)N1CC2(C1)CN(C(=O)CN1C[C@H]3CC(=O)N(c4cc(C(F)(F)F)cc(C)n4)[C@@H]3C(=O)N(C)c3cccc(F)c31)c1nccn12 [Example 106, (3aR,11aS)-5-(2-(1-acryloylspiro[azetidine-3,3′-imidazo[1,2-a]imidazo]-1′(2′H)-yl)ethyl)-6-fluoro-10-methyl-1-(6-methyl-4-(trifluoromethyl)pyridin-2-yl)-1,3a,4,5,10,11a-hexahydro-2H-benzo[b]pyrrolo[2,3-f][1,4]diazocine-2,11(3H)-dione] | 1.14e+06 M⁻¹ s⁻¹

The next lines start with the values.

Row | Kinact/Kl | SMILES
10 | 2.49e+06 M⁻¹ s⁻¹ | C=CC(=O)N1CC2(CN(CCN3C[C@H]4CC(=O)N(c5cc(C(F)(F)F)cc(C)n5)[C@@H]4C(=O)N(C)c4cccc(Cl)c43)CC(=O)N2C)C1 [Example 111, (3aR,11aS)-5-(2-(2-acryloyl-5-methyl-6-oxo-2,5,8-triazaspiro[3.5]nonan-8-yl)ethyl)-6-chloro-10-methyl-1-(6-methyl-4-(trifluoromethyl)pyridin-2-yl)-1,3a,4,5,10,11a-hexahydro-2H-benzo[b]pyrrolo[2,3-f][1,4]diazocine-2,11(3H)-dione]
11 | 920000 M⁻¹ s⁻¹ | C=CC(=O)N1CC(N2CCN(CCN3C[C@H]4CC(=O)N(c5cc(C(F)(F)F)cc(C)n5)[C@@H]4C(=O)N(C)c4cccc(Cl)c43)CC2=O)C1 [Example 112, (3aR,11aS)-5-(2-(4-(1-acryloylazetidin-3-yl)-3-oxopiperazin-1-yl)ethyl)-6-chloro-10-methyl-1-(6-methyl-4-(trifluoromethyl)pyridin-2-yl)-1,3a,4,5,10,11a-hexahydro-2H-benzo[b]pyrrolo[2,3-f][1,4]diazocine-2,11(3H)-dione]
12 | 580000 M⁻¹ s⁻¹ | C=CC(=O)N1CC2(CN(CCN3C[C@H]4CC(=O)N(c5cc(C(F)(F)F)cc(C)n5)[C@@H]4C(=O)N(C)c4cccc(C)c43)CCN2)C1 [Example 114, (3aR,11aS)-5-(2-(2-acryloyl-2,5,8-triazaspiro[3.5]nonan-8-yl)ethyl)-6,10-dimethyl-1-(6-methyl-4-(trifluoromethyl)pyridin-2-yl)-1,3a,4,5,10,11a-hexahydro-2H-benzo[b]pyrrolo[2,3-f][1,4]diazocine-2,11(3H)-dione]
13 | 2.35e+06 M⁻¹ s⁻¹ | C=CC(=O)N1CC(N2CCN(CCN3C[C@H]4CC(=O)N(c5cc(C(F)(F)F)cc(C)n5)[C@@H]4C(=O)N(C)c4cccc(C)c43)CC2)C1 [Example 115, (3aR,11aS)-5-(2-(4-(1-acryloylazetidin-3-yl)piperazin-1-yl)ethyl)-6,10-dimethyl-1-(6-methyl-4-(trifluoromethyl)pyridin-2-yl)-1,3a,4,5,10,11a-hexahydro-2H-benzo[b]pyrrolo[2,3-f][1,4]diazocine-2,11(3H)-dione]
14 | 890000 M⁻¹ s⁻¹ | C=CC(=O)N1CC(n2ccc(CN3C[C@H]4CC(=O)N(c5cc(C(F)(F)F)cc(C)n5)[C@@H]4C(=O)N(C)c4cccc(F)c43)n2)C1 [Example 120, (3aR,11aS)-5-((1-(1-acryloylazetidin-3-yl)-1H-pyrazol-3-yl)methyl)-6-fluoro-10-methyl-1-(6-methyl-4-(trifluoromethyl)pyridin-2-yl)-1,3a,4,5,10,11a-hexahydro-2H-benzo[b]pyrrolo[2,3-f][1,4]diazocine-2,11(3H)-dione]
15 | 540000 M⁻¹ s⁻¹ | C=CC(=O)N1CC(n2cc(CN3C[C@H]4CC(=O)N(c5cc(C(F)(F)F)cc(C)n5)[C@@H]4C(=O)N(C)c4cccc(F)c43)cn2)C1 [Example 121, (3aR,11aS)-5-((1-(1-acryloylazetidin-3-yl)-1H-pyrazol-4-yl)methyl)-6-fluoro-10-methyl-1-(6-methyl-4-(trifluoromethyl)pyridin-2-yl)-1,3a,4,5,10,11a-hexahydro-2H-benzo[b]pyrrolo[2,3-f][1,4]diazocine-2,11(3H)-dione]
16 | 610000 M⁻¹ s⁻¹ | C=CC(=O)N1CC(c2nc(CN3C[C@H]4CC(=O)N(c5cc(C(F)(F)F)cc(C)n5)[C@@H]4C(=O)N(C)c4cccc(F)c43)c[nH]2)C1 [Example 122, (3aR,11aS)-5-((2-(1-acryloylazetidin-3-yl)-1H-imidazol-4-yl)methyl)-6-fluoro-10-methyl-1-(6-methyl-4-(trifluoromethyl)pyridin-2-yl)-1,3a,4,5,10,11a-hexahydro-2H-benzo[b]pyrrolo[2,3-f][1,4]diazocine-2,11(3H)-dione]
